Measurements: ChEMBL document CHEMBL4507275, “Data for DCP probe BI-2545” (2021)

Legend:
[1] = molecular target: Serine/threonine-protein kinase WNK4 (Homo sapiens) (UniProt Q96J92); conditions: Compound concentration 1000.0 nM
[2] = molecular target: Serine/threonine-protein kinase SIK3 (Homo sapiens) (UniProt Q9Y2K2); conditions: Compound concentration 1000.0 nM
[3] = molecular target: STE20/SPS1-related proline-alanine-rich protein kinase (Homo sapiens) (UniProt Q9UEW8); conditions: Compound concentration 1000.0 nM
[4] = molecular target: T1, Alpha-2A adrenergic receptor (Homo sapiens) (UniProt P08913); conditions: Compound concentration 10.0 uM
T1 sequence (whole entry): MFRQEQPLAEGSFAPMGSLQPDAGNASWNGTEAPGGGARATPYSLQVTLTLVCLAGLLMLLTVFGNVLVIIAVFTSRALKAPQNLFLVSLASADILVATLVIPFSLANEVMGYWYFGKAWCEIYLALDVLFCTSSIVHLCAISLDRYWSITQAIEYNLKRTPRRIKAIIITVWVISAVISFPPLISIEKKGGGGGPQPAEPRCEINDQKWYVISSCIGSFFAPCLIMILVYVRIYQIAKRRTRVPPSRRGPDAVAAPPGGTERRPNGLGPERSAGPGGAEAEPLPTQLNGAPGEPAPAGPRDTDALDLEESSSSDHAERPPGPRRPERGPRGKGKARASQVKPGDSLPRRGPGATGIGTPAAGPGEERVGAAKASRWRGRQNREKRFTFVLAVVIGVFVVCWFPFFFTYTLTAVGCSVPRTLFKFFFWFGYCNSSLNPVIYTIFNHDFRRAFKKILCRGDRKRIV

[5] = molecular target: Cyclin-dependent kinase-like 3 (Homo sapiens) (UniProt Q8IVW4); conditions: Compound concentration 1000.0 nM
[6] = molecular target: Protein kinase C delta type (Homo sapiens) (UniProt Q05655); conditions: Compound concentration 1000.0 nM
[7] = molecular target: Casein kinase II subunit alpha (Homo sapiens) (UniProt P68400); conditions: Compound concentration 1000.0 nM
[8] = molecular target: Tyrosine-protein kinase ABL1 (Homo sapiens) (UniProt P00519); conditions: Compound concentration 1000.0 nM
[9] = molecular target: Mitogen-activated protein kinase kinase kinase kinase 2 (Homo sapiens) (UniProt Q12851); conditions: Compound concentration 1000.0 nM
Mitogen-activated protein kinase kinase kinase kinase 2 (Homo sapiens), sequence (Q12851 whole entry): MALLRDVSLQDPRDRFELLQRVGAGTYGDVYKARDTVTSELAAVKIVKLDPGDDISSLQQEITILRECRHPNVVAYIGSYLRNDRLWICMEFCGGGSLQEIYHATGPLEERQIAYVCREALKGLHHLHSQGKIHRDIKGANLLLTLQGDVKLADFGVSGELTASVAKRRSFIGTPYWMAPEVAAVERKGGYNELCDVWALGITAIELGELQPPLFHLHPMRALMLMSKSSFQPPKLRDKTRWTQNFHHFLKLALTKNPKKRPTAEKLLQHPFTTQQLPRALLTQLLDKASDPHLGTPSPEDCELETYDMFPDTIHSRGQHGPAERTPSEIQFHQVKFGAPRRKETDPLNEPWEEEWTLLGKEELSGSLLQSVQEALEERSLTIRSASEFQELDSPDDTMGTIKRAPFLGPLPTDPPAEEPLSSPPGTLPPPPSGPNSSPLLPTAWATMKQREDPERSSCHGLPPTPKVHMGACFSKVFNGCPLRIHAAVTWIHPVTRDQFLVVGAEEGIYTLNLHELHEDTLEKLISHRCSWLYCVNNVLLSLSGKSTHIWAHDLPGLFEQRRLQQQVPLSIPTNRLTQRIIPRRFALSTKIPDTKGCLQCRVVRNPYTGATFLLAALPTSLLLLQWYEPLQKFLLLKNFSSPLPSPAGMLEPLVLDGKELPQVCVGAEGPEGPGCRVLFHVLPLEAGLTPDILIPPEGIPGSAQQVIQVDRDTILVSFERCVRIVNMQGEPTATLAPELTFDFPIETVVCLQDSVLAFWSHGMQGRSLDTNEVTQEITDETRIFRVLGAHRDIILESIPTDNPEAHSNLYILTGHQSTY

[10] = tested on: Receptor-type tyrosine-protein kinase FLT3 (Homo sapiens), P36888 [UNDEFINED MUTATION]; conditions: Compound concentration 1000.0 nM
[11] = molecular target: G protein-coupled receptor kinase 4 (Homo sapiens) (UniProt P32298); conditions: Compound concentration 1000.0 nM
[12] = molecular target: High affinity nerve growth factor receptor (Homo sapiens) (UniProt P04629); conditions: Compound concentration 1000.0 nM
[13] = molecular target: Calcium-dependent protein kinase 1 (Plasmodium falciparum) (UniProt P62344); conditions: Compound concentration 1000.0 nM
[14] = molecular target: Proto-oncogene tyrosine-protein kinase ROS (Homo sapiens) (UniProt P08922); conditions: Compound concentration 1000.0 nM
[15] = molecular target: Kappa-type opioid receptor (Homo sapiens) (UniProt P41145); conditions: Compound concentration 10.0 uM
[16] = molecular target: Serine/threonine-protein kinase ULK2 (Homo sapiens) (UniProt Q8IYT8); conditions: Compound concentration 1000.0 nM
[17] = tested on: Epidermal growth factor receptor (Homo sapiens), P00533 [G719S]; conditions: Compound concentration 1000.0 nM
[18] = molecular target: Ephrin type-B receptor 1 (Homo sapiens) (UniProt P54762); conditions: Compound concentration 1000.0 nM
[19] = molecular target: SRSF protein kinase 1 (Homo sapiens) (UniProt Q96SB4); conditions: Compound concentration 1000.0 nM
[20] = molecular target: Vascular endothelial growth factor receptor 1 (Homo sapiens) (UniProt P17948); conditions: Compound concentration 1000.0 nM
[21] = molecular target: Serine/threonine-protein kinase DCLK3 (Homo sapiens) (UniProt Q9C098); conditions: Compound concentration 1000.0 nM
[22] = molecular target: Cyclin-dependent kinase 4 (Homo sapiens) (UniProt P11802); conditions: Compound concentration 1000.0 nM
[23] = molecular target: Serine/threonine-protein kinase NLK (Homo sapiens) (UniProt Q9UBE8); conditions: Compound concentration 1000.0 nM
[24] = tested on: Serine/threonine-protein kinase B-raf (Homo sapiens), P15056 [V600E]; conditions: Compound concentration 1000.0 nM
Serine/threonine-protein kinase B-raf (Homo sapiens), P15056 [V600E], sequence (P15056 whole entry V600E): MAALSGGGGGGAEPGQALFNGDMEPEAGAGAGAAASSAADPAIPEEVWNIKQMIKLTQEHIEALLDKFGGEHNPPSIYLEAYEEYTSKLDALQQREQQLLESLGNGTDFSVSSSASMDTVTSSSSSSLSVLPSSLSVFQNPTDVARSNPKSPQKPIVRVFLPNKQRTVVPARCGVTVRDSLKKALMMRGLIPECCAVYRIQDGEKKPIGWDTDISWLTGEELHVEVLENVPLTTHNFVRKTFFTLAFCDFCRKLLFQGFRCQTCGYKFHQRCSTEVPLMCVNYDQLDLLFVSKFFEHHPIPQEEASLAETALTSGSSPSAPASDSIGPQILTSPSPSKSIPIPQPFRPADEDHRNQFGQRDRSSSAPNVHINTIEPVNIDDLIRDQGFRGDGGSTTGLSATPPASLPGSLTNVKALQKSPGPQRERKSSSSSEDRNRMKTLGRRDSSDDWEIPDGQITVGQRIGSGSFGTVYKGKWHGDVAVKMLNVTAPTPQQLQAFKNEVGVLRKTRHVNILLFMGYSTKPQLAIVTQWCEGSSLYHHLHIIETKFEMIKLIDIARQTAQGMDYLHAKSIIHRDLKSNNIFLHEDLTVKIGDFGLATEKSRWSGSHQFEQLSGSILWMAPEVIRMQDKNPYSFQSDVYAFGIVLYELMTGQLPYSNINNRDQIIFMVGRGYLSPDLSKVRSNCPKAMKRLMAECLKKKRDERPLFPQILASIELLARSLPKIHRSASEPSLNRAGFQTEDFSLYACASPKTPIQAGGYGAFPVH

[25] = molecular target: Activated CDC42 kinase 1 (Homo sapiens) (UniProt Q07912); conditions: Compound concentration 1000.0 nM
[26] = molecular target: Calcium/calmodulin-dependent protein kinase type 1G (Homo sapiens) (UniProt Q96NX5); conditions: Compound concentration 1000.0 nM
Calcium/calmodulin-dependent protein kinase type 1G (Homo sapiens), sequence (Q96NX5 whole entry): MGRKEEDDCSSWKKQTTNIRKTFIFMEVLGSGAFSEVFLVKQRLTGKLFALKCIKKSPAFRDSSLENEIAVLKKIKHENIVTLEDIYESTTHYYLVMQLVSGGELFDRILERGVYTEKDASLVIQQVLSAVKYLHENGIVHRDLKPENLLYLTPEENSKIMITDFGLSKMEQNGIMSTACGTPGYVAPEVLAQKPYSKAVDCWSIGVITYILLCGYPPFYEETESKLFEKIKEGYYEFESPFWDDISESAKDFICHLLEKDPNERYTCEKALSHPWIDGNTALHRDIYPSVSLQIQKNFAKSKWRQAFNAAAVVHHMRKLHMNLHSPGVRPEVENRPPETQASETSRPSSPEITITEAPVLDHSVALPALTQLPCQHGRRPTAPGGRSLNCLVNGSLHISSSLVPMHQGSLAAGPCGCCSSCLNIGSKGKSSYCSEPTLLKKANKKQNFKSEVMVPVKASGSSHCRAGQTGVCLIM

[27] = tested on: Tyrosine-protein kinase ABL1 (Homo sapiens), P00519 [H396P]; conditions: Compound concentration 1000.0 nM
[28] = tested on: eIF-2-alpha kinase GCN2 (Homo sapiens), Q9P2K8 [S808G]; conditions: Compound concentration 1000.0 nM
[29] = molecular target: Dual specificity tyrosine-phosphorylation-regulated kinase 1A (Homo sapiens) (UniProt Q13627); conditions: Compound concentration 1000.0 nM
[30] = molecular target: Histamine H3 receptor (Homo sapiens) (UniProt Q9Y5N1); conditions: Compound concentration 10.0 uM
[31] = molecular target: Phosphorylase b kinase gamma catalytic chain, skeletal muscle/heart isoform (Homo sapiens) (UniProt Q16816); conditions: Compound concentration 1000.0 nM
[32] = molecular target: Muscarinic acetylcholine receptor M4 (Homo sapiens) (UniProt P08173); conditions: Compound concentration 10.0 uM
[33] = molecular target: Ephrin type-B receptor 6 (Homo sapiens) (UniProt O15197); conditions: Compound concentration 1000.0 nM
[34] = molecular target: AP2-associated protein kinase 1 (Homo sapiens) (UniProt Q2M2I8); conditions: Compound concentration 1000.0 nM
[35] = molecular target: Cyclin-G-associated kinase (Homo sapiens) (UniProt O14976); conditions: Compound concentration 1000.0 nM
[36] = molecular target: Ephrin type-B receptor 2 (Homo sapiens) (UniProt P29323); conditions: Compound concentration 1000.0 nM
Ephrin type-B receptor 2 (Homo sapiens), sequence (P29323 whole entry): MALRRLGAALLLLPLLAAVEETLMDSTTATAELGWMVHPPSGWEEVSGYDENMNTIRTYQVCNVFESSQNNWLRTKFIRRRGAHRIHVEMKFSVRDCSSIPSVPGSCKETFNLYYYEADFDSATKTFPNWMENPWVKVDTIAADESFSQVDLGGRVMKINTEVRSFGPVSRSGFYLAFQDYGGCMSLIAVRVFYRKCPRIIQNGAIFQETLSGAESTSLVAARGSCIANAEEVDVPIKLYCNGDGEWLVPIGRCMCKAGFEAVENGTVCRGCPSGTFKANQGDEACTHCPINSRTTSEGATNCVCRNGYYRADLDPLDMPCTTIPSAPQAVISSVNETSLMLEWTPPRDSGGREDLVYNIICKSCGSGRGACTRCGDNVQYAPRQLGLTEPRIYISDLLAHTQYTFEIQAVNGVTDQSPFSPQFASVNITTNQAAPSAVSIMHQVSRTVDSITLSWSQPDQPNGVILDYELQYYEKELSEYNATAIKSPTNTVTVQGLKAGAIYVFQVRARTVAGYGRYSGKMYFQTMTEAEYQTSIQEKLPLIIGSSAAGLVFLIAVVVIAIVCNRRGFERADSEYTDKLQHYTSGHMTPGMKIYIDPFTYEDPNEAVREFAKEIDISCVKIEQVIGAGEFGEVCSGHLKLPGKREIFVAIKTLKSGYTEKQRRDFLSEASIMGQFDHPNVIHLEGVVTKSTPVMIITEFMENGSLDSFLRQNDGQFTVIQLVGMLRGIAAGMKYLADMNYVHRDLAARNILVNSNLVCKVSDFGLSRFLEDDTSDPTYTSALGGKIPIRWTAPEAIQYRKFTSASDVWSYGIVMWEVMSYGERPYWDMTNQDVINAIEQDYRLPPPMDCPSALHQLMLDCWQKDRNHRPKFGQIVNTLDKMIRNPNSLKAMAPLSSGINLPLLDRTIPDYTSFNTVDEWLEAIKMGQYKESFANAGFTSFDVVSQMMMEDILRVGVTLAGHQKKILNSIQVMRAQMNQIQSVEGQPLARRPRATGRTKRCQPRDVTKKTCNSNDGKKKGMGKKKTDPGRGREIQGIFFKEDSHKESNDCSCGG

[37] = molecular target: Dual specificity mitogen-activated protein kinase kinase 4 (Homo sapiens) (UniProt P45985); conditions: Compound concentration 1000.0 nM
Dual specificity mitogen-activated protein kinase kinase 4 (Homo sapiens), sequence (P45985 whole entry): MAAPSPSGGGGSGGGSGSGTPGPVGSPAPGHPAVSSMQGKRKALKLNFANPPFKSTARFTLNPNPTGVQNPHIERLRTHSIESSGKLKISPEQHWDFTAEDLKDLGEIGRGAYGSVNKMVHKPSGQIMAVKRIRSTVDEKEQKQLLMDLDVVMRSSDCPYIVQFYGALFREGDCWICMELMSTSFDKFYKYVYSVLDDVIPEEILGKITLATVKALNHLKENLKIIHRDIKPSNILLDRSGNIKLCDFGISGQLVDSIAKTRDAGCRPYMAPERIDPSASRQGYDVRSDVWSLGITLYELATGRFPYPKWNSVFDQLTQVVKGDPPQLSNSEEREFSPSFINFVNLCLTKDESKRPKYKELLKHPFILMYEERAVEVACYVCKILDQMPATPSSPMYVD

[38] = molecular target: Serine/threonine-protein kinase MARK1 (Homo sapiens) (UniProt Q9P0L2); conditions: Compound concentration 1000.0 nM
[39] = molecular target: Non-receptor tyrosine-protein kinase TYK2 (Homo sapiens) (UniProt P29597); conditions: Compound concentration 1000.0 nM

Serine/threonine-protein kinase SIK3 (Homo sapiens), sequence (Q9Y2K2 whole entry, looked up): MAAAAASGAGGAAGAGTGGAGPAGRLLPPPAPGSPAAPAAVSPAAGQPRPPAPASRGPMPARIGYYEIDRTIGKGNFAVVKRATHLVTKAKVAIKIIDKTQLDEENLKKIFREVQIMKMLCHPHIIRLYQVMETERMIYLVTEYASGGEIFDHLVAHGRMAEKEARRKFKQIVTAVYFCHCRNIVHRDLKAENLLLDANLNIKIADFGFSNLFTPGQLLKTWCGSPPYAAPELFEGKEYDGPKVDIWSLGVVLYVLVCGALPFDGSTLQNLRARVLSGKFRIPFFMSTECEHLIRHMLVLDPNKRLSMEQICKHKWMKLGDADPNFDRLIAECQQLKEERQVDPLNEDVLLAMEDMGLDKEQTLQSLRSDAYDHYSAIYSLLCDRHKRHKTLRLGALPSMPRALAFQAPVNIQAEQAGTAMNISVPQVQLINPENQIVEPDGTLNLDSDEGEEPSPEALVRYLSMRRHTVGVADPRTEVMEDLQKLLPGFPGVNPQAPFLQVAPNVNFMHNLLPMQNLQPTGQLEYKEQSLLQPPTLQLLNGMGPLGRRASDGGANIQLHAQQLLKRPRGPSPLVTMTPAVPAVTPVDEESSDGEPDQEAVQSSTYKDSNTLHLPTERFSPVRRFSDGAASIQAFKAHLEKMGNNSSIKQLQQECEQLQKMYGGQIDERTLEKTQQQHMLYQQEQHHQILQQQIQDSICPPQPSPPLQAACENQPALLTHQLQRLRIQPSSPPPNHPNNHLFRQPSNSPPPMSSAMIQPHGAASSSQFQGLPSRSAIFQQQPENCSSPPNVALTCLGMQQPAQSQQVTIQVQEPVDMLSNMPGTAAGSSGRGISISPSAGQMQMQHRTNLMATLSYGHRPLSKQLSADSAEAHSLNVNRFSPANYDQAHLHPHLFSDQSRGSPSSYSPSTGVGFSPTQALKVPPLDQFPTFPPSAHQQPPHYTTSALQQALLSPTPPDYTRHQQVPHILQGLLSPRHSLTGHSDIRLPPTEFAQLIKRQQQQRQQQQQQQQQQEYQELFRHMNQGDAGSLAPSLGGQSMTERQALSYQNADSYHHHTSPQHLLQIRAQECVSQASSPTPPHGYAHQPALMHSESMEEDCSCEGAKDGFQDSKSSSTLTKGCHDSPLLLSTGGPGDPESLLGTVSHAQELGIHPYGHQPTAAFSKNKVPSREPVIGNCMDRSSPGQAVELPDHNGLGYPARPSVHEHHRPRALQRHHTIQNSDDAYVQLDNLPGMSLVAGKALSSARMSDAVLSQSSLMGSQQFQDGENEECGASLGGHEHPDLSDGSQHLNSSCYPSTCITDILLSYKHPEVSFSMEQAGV

| SMILES | residual activity [1] [%] | residual activity [2] [%] | residual activity [3] [%] | inhibition [4] [%] | residual activity [5] [%] | residual activity [6] [%] | residual activity [7] [%] | residual activity [8] [%] | residual activity [9] [%] | residual activity [10] [%] | residual activity [11] [%] | residual activity [12] [%] | residual activity [13] [%] | residual activity [14] [%] | inhibition [15] [%] | residual activity [16] [%] | residual activity [17] [%] | residual activity [18] [%] | residual activity [19] [%] | residual activity [20] [%] | also measured |
| --- | --- | --- | --- | --- | --- | --- | --- | --- | --- | --- | --- | --- | --- | --- | --- | --- | --- | --- | --- | --- | --- |
| O=C(NC[C@@H]1[C@H]2CN(C(=O)OCc3cc(C(F)(F)F)cc(C(F)(F)F)c3)C[C@@H]12)c1ccc2[nH]nnc2c1 [BI 2545] | 89 | 79 | 80 | 14.3 | 87 | 93 | 84 | 100 | 92 | 83 | 100 | 85 | 99 | 100 | 27.8 | 97 | 100 | 100 | 81 | 82 | residual activity [21]: 100%; residual activity [22]: 100%; residual activity [23]: 100%; residual activity [24]: 100%; residual activity [25]: 100%; residual activity [26]: 100%; residual activity [27]: 91%; residual activity [28]: 84%; residual activity [29]: 86%; inhibition [30]: -5.26%; residual activity [31]: 92%; inhibition [32]: 14.2%; residual activity [33]: 100%; residual activity [34]: 96%; residual activity [35]: 91%; residual activity [36]: 100%; residual activity [37]: 95%; residual activity [38]: 98%; residual activity [39]: 100% |
| Cc1nccc(COC(=O)N2C[C@@H]3[C@@H](CNC(=O)c4ccc5[nH]nnc5c4)[C@@H]3C2)n1 [BI 3017] | 100 | 100 | 79 | 2.2 | 99 | 95 | 81 | 95 | 84 | 100 | 100 | 94 | 100 | 100 | 9.47 | 77 | 100 | 95 | 80 | 100 | residual activity [21]: 100%; residual activity [22]: 90%; residual activity [23]: 41%; residual activity [24]: 100%; residual activity [25]: 100%; residual activity [26]: 100%; residual activity [27]: 85%; residual activity [28]: 84%; residual activity [29]: 81%; inhibition [30]: 9.03%; residual activity [31]: 100%; inhibition [32]: 16.1%; residual activity [33]: 99%; residual activity [34]: 100%; residual activity [35]: 100%; residual activity [36]: 100%; residual activity [37]: 100%; residual activity [38]: 84%; residual activity [39]: 100% |
